According to US20160083776A1, “Methods for Measuring Polymerase Activity Useful for Sensitive, Quantitative Measurements of Any Polymerase Extension Activity and for Determining the Presence of Viable Cells” (Zeus Scientific, Inc., priority 2012, published 2016):

Key:
Format in all cases: biochemical
DNA polymerase I = target: T1, DNA polymerase I (Escherichia coli, UniProt P00582); assay: DPE-PCR assay, ddCTP termination of purified DNA polymerase extension activity; settings: 50 μM ddCTP substituted for dCTP in the extension reaction mix; 37° C., 20 minutes
T1 construct: purchased New England Biolabs MO209
T1 sequence (P00582 whole entry): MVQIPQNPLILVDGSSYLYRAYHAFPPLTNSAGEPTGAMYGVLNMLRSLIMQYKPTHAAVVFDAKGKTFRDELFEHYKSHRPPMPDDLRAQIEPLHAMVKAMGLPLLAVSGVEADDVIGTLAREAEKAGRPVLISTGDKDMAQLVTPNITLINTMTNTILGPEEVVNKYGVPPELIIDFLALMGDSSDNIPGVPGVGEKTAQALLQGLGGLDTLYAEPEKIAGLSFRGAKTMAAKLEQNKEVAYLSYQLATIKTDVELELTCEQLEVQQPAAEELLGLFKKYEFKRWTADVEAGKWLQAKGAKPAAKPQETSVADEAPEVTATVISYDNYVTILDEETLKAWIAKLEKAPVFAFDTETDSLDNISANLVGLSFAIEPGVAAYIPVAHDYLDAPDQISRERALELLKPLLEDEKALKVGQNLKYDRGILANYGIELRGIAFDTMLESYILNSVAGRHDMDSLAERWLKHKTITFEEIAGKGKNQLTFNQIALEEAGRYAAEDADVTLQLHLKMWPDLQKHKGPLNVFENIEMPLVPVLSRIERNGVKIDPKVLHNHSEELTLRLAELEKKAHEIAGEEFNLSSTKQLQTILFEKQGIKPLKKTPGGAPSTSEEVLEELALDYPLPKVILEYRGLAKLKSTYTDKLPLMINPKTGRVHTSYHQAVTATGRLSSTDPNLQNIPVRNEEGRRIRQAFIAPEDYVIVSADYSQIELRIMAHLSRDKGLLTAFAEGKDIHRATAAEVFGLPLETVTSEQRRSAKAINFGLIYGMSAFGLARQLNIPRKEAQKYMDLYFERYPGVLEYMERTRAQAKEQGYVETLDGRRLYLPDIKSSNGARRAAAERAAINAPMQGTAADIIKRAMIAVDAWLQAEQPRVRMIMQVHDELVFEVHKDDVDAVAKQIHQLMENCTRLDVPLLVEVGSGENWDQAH
Protocol: DNA Pol I (NEB cat# MO209L), Klenow (NEB cat# MO210S) and Klenow exo(−) (NEB cat# MO212S) were diluted to the indicated U/μL stock in sterile T.E. pH 8.0. To begin, 2 μL of DNA polymerase stock at each concentration were placed into a 50 μL DNA polymerase extension reaction mixture containing the following components: 50 μM dNTP, 20 mM Tris pH 8.0, 10 mM Ammonium sulfate, 10 mM Potassium chloride, 2 mM Magnesium sulfate, 1% BSA, 0.1% Triton X-100, 0.1% Tween 20, and 0.001 μM pre-annealed DNA substrate (described above. Two micro-liters of T.E. (without DNA polymerase) was routinely added to an additional tube containing complete DNA polymerase extension reaction mixture and is referred to as a “No Input Control” (NIC). Reactions containing DNA polymerase (or No Input Controls) were vortexed briefly and placed at 37° C. for 20 minutes. After 20 minutes, 3 μL of each reactions containing purified DNA polymerase were immediately placed into a qPCR reaction (see below for qPCR conditions).
DNA polymerase extension reactions were prepared as described above with a 50 μM [dATP, dGTP, dTTP] mixture supplemented with either 50 μM dCTP or 50 μM ddCTP (Affymetrix #77332.) 50 μL DNA polymerase extension reactions with a 50 μM [dATP, dGTP, dTTP] mixture, supplemented with either dCTP or ddCTP, were spiked with 2 μL of a 1×10^−9 U/μL stock of DNA polymerase I (New England Biolabs # MO209). […]

[1] = system: S. aureus DNA polymerase extension activity; assay: Bead lysis-coupled DPE-PCR, ddCTP substitution, S. aureus lysate; settings: 50 μM ddCTP substituted for dCTP, compared to standard reaction mix; crude bead mill lysate
Protocol: (§1) FIG. 5 illustrates that detection of bacteria by DPE-PCR is blocked by ddCTP. 5 μL of E. coli suspension were added to bead lysis-coupled DNA polymerase assays comprised of a dNTP mix containing either 50 μM dCTP or 50 μM ddCTP. DPE-PCR curves representing E. coli-derived DNA polymerase activity is presented. Plots were generated using the average qPCR Ct values from triplicate reactions at the indicated conditions. ddCTP termination and dCTP rescue experiments were performed for S. aureus exactly as described above for E. coli.
(§2) S. aureus and E. coli cultures were grown to an OD600 of 1.0±0.2 (approximately 1×10^9 cfu/mL.) For each organism, 1 mL of culture was pelleted and washed three times in T.E. Bacterial suspensions were serially diluted in T.E., and 5 μL of each stock were added to bead mill lysis tubes containing 50 μL DNA polymerase extension reaction mixture (see above for composition). A titration curve of 1×10^5 to […] cfu/reaction was performed in triplicate for each organism, including triplicate reactions without bacterial suspension.
(§3) After the addition of 5 μL bacterial stock, reaction tubes were bead milled for 6 min. at 2800 rpm using a digital Vortex Genie equipped with a disrupter head (Scientific Industries). Immediately after disruption, sample tubes were placed at 37° C. for 20 minutes. […]

[2] = system: E. coli-derived DNA polymerase activity; assay: Bead lysis-coupled DPE-PCR, ddCTP substitution, E. coli lysate; settings: 50 μM ddCTP substituted for dCTP, compared to standard reaction mix; crude bead mill lysate
Protocol: as §1, §2, §3

Nc1ccn([C@H]2CC[C@@H](COP(=O)(O)OP(=O)(O)OP(=O)(O)O)O2)c(=O)n1 [ddCTP, 2′,3′-Dideoxycytidine-5′-Triphosphate]
DPE-PCR assay signal generated by DNA polymerase I (DNA polymerase I): eliminates signal | DPE-PCR signal derived from S. aureus cfu spikes [1]: blocked the generation of signal | DPE-PCR signal derived from E. coli cfu spikes [2]: blocked the generation of signal
